For one compound, Latency time and Alternation behavior results are on record in patent US10471111B2, “Lactobacillus and composition for preventing, improving, or treating degenerative brain diseases or cognitive function disorders” (University-Industry Cooperation Group of Kyung Hee …, priority 2015, dated 2019).

Molecules are shown by their SMILES.

Common to all, as to assay type: in vivo, ICR male mice
In assay [1] the test system is mice induced to have memory impairment by scopolamine. Kind of assay: Passive Avoidance test, memory impairment by scopolamine. The note with it: scopolamine 1 mg/kg; lactic acid bacteria 1×10^9 CFU or donepezil 5 mg/kg daily for three days; measured up to 300 seconds. From the text: In the Passive Avoidance test apparatus, which is divided into the first and second space, there is a guillotine-like door that connects the two spaces. By using lightings, the first space was kept bright while the second space was kept dark. On the floor of the second space that was kept dark was placed an electric grid that flowed 0.5 mA of electric shock for three seconds in the case of the animal moving to the dark space.
(§1) The selected 13 types of lactic acid bacteria were each suspended in physiological saline at the concentration of 1×10^10 CFU/ ? , and then the suspension was administered to mice of the test animal (5-week-old ICR male mice from Raonbio), at the dosage of 0.1 ? (equivalent to 1×10^9 CFU of lactic acid bacteria) on a daily basis for three days. […]
On the third day after administering the drug, an hour after administering lactic acid bacteria or positive control drug, 1 mg/kg (body weight) of scopolamine (cholinergic blocking drug inducing cognitive ability disorder or memory damage), dissolved in distilled water, was administered in the abdomen while the normal group was administered with physiological saline in the abdomen. […] With 10 seconds of observation, the guillotine-like door is opened, the time that the mice in each experimental group took to have all of their four feet inside the second space was measured up to 300 seconds, whose result is shown in Table 8. […]

For assay [2] the test system is unchanged. Kind of assay: Y-maze test, memory impairment by scopolamine. The protocol: Apparatus used in the Y-maze test consists of three arms with each being 42 cm in length, 3 cm in width and 12 cm in height. The three arms, made from black polyvinyl resin, were placed at an angle of 120 degrees.
as §1
An hour after the final administration of lactic acid bacteria or positive control drug, 1 mg/kg (body weight) of scopolamine (cholinergic blocking drug inducing cognitive ability disorder or memory impairment), dissolved in distilled water, was administered in the abdomen while the normal group was administered with physiological saline in the abdomen. half an hour after the administration of scopolamine, the mouse was carefully placed in one of the three arms, A, B, and C, in the Y-maze and allowed to freely move for eight minutes, and then the arm in which the mouse moved was recorded. In the experiment, the arm was recorded as a case in which the test animal moved only when the entire body including the tail was inside the arm, or when the mouse moved back in. […]

Assay [3] concerns mice induced to have memory impairment by Proteus mirabilis K21. Kind of assay: Y-maze test, memory impairment by Proteus mirabilis K21. Conditions: Proteus mirabilis K21 1×10^9 CFU for five days, then lactic acid bacteria 1×10^9 CFU or donepezil 5 mg/kg daily for five days. The protocol: Proteus mirabilis K21 separated from the animal with damaged memory was administered to the mice to induce memory impairment (similar symptoms to […]), and Y-maze test was conducted to measure the improvement effect of lactic acid bacteria for cognitive ability.
In more detail, Proteus mirabilis K21 was administered to a mouse (5-week-old ICR male mice from Raonbio) that was fed for a week in the animal laboratory at the dosage of 1×10^9 CFU on a daily basis for five days to induce memory impairment. In the meantime, the normal group was administered with physiological saline instead of Proteus mirabilis K21. […]
An hour after the final administration of drug, the mouse was carefully placed in one of the three arms, A, B, and C, in the Y-maze and allowed to freely move for eight minutes, and then the arm in which the mouse moved was recorded. In the experiment, the arm was recorded as an arm in which the test animal moved only when the entire body including the tail was inside the arm, or when the mouse moved back in. […] The experimental result was calculated by the formula below (Sarter, M. et al., Psychopharmacology., 94, pp 491-495, 1998), as shown in Table 12 below. […]

In turn, `COc1cc2c(cc1OC)C(=O)C(CC1CCN(Cc3ccccc3)CC1)C2` (stereo not shown) [donepezil] yielded a Latency time in assay [1] of 66.4 s. Further, the Alternation behavior in assay [2] (Y-maze test, Table 11, scopolamine, red bean suspension or ferment 0.2 g per mouse, CJLJ103 2 × 10^8 CFU per mouse daily) is on record as 63.2%; in assay [2] (scopolamine 1 mg/kg, lactic acid bacteria 1×10^9 CFU or donepezil 5 mg/kg daily for three days) it was 65.8%; in assay [3], 58.6%.
